The values below come from ChEMBL document CHEMBL4627394, “A Grand Challenge. 3. Unbiased Phenotypic Function of Metabolites from Australia Plants Gloriosa superba and Alangium villosum against Parkinson's Disease” (J Nat Prod, 2020).

The source made the active and inactive calls. The calls are words filed in the database; no cut-off is given here.

For series [1], the species on record is Homo sapiens. Nature of the series: Effect on early endosome parameters in Parkinson's disease patient derived human ONS cells at 10 uM after 24 hrs by EEA1 staining based fluorescence assay. It is filed as functional.
Series [2] in a line: Cytotoxicity against Parkinson's disease patient derived human ONS cells assessed as effect on cell morphology parameters at 10 uM after 24 hrs by DAPI staining based fluorescence assay.
The nature of series [3]: Cytotoxicity against Parkinson's disease patient derived human ONS cells assessed as effect on nucleus morphology parameters at 10 uM after 24 hrs by DAPI staining based fluorescence assay.

`CC[C@H]1C[N@@+]2(O)CCc3cc(O)c(OC)cc3[C@@H]2C[C@@H]1C[C@H]1NCCc2c1[nH]c1ccc(O)cc21.O=C(O)C(F)(F)F.O=C([O-])C(F)(F)F`: the result in series [1] was Active. In addition, the Activity entry in series [2] and in series [3] was “Non-Toxic” in each case.

On to `COc1cc2c(c(OC)c1O)-c1ccc(OC)c(=O)cc1[C@@H](NC=O)CC2`, for which the Activity result in series [2] and in series [3] was “Non-Toxic” each time.

In the case of `CC[C@H]1C[N@+]2(O)CCc3cc(O)c(OC)cc3[C@@H]2C[C@@H]1C[C@@H]1NCCc2c1[nH]c1ccc(O)cc21.O=C(O)C(F)(F)F.O=C([O-])C(F)(F)F`, the outcome in series [1] was Active. In addition, the Activity result in series [2] and in series [3] was “Non-Toxic” throughout.

Consider `COc1c2c(cc3c1-c1ccc(OC)c(=O)cc1[C@@H](NC(C)=O)CC3)OCO2`, for which the Activity entry in series [2] and in series [3] was “Non-Toxic” throughout.

On to `COC1=C[C@@H]2C3=C([C@@H]2C1=O)[C@@H](NC(C)=O)CCc1cc(OC)c(OC)c(OC)c13`, for which the Activity entry in series [2] and in series [3] was “Non-Toxic” throughout.

For the compound `COC1=C[C@@H]2C3=C([C@@H]2C1=O)[C@@H](NC(C)=O)CCc1cc(OC)c(O[C@@H]2O[C@H](CO)[C@@H](O)[C@H](O)[C@H]2O)c(OC)c13`, the Activity entry in series [2] and in series [3] was “Non-Toxic” in each case.

In the case of `COC1=C[C@@H]2C3=C([C@@H]2C1=O)[C@@H](NC(C)=O)CCc1cc(OC)c(O)c(OC)c13`, the Activity result in series [2] and in series [3] was “Non-Toxic” throughout.

With `CC[C@H]1CN2CCc3cc(O)c(OC)cc3[C@@H]2C[C@@H]1C[C@H]1NCCc2c1[nH]c1ccc(O)cc21.O=C(O)C(F)(F)F.O=C(O)C(F)(F)F`, in series [1], the result was Active. Also, the Activity entry in series [2] and in series [3] was “Non-Toxic” each time.

Turning to `CC[C@H]1C[N@+]2(O)CCc3cc(OC)c(OC)cc3[C@@H]2C[C@@H]1C[C@@H]1NCCc2c1[nH]c1ccc(O)cc21.O=C(O)C(F)(F)F.O=C([O-])C(F)(F)F`, the outcome in series [1] was Active. Also, the Activity result in series [2] and in series [3] was “Non-Toxic” each time.

In the case of `CC[C@H]1CN2CCc3cc(O)c(OC)cc3[C@@H]2C[C@@H]1C[C@H]1NCCc2c1[nH]c1ccccc21.O=C(O)C(F)(F)F.O=C(O)C(F)(F)F`, the outcome in series [1] was Active. Moreover, the Activity result in series [2] and in series [3] was “Non-Toxic” throughout.

Consider `CC[C@H]1C[N@@+]2(O)CCc3cc(OC)c(OC)cc3[C@@H]2C[C@@H]1C[C@H]1NCCc2c1[nH]c1ccc(O)cc21.O=C(O)C(F)(F)F.O=C([O-])C(F)(F)F`, for which the outcome in series [1] was Active. The Activity entry in series [2] and in series [3] was “Non-Toxic” in each case.

For `COc1cc2c(c(OC)c1OC)-c1ccc(OC)c(=O)cc1[C@@H](NC=O)CC2`, the Activity result in series [2] and in series [3] was “Non-Toxic” in each case.

`CC[C@H]1CN2CCc3cc(OC)c(OC)cc3[C@@H]2C[C@@H]1C[C@H]1NCCc2c1[nH]c1ccc(O)cc21.O=C(O)C(F)(F)F.O=C(O)C(F)(F)F`: the result in series [1] was Active. Besides, the Activity entry in series [2] and in series [3] was “Non-Toxic” each time.

`COc1cc2c(c(OC)c1O)-c1ccc(OC)c(=O)cc1[C@@H](NC(C)=O)CC2` [2-DESMETHYLCOLCHICIN]: the Activity entry in series [2] and in series [3] was “Non-Toxic” in each case.

On to `COc1cc2c(c(OC)c1OC)-c1ccc(OC)c(=O)cc1[C@@H](NC(C)=O)CC2` [COLCHICINE], for which the Activity entry in series [2] and in series [3] was “Non-Toxic” throughout.

As to `COC1=C[C@@H]2C3=C([C@@H]2C1=O)[C@@H](NC=O)CCc1cc(OC)c(O[C@@H]2O[C@H](CO)[C@@H](O)[C@H](O)[C@H]2O)c(OC)c13`, the Activity entry in series [2] and in series [3] was “Non-Toxic” each time.

In the case of `COC1=C[C@@H]2C3=C([C@@H]2C1=O)[C@@H](NC=O)CCc1cc(OC)c(O)c(OC)c13`, the Activity result in series [2] and in series [3] was “Non-Toxic” throughout.

Take `CC[C@H]1CN2CCc3cc(O)c(OC)cc3[C@@H]2C[C@@H]1C[C@@H]1NCCc2c1[nH]c1ccc(O)cc21.O=C(O)C(F)(F)F.O=C(O)C(F)(F)F`: in series [1], the result was Active. The Activity result in series [2] and in series [3] was “Non-Toxic” each time.

With `CC[C@H]1CN2CCc3cc(OC)c(OC)cc3[C@@H]2C[C@@H]1C[C@@H]1NCCc2c1[nH]c1ccc(O)cc21.O=C(O)C(F)(F)F.O=C(O)C(F)(F)F`, the result in series [1] was Active. For the same compound, the Activity result in series [2] and in series [3] was “Non-Toxic” each time.

As to `COC1=C[C@@H]2C3=C([C@@H]2C1=O)[C@@H](NC=O)CCc1cc(OC)c(OC)c(OC)c13`, the Activity result in series [2] and in series [3] was “Non-Toxic” throughout.

Consider `COC1=C[C@H]2C3=C([C@H]2C1=O)[C@@H](NC(C)=O)CCc1cc(OC)c(O[C@@H]2O[C@H](CO)[C@@H](O)[C@H](O)[C@H]2O)c(OC)c13`, for which the Activity result in series [2] and in series [3] was “Non-Toxic” throughout.

In the case of `COC1=C[C@@H]2C3=C([C@@H]2C1=O)[C@@H](NC(C)=O)CCc1cc(O[C@@H]2O[C@H](CO)[C@@H](O)[C@H](O)[C@H]2O)c(O)c(OC)c13`, the Activity entry in series [2] and in series [3] was “Non-Toxic” in each case.
